Reference: patent publication US20220213197A1 (priority 2019, published 2022)
Several values for one entry are separate records, joined by “and”; a condition that tells them apart may be missing. Identical values can stand only once. Like-named read-outs stand apart in the source and are kept apart here.

What was measured:
[1] = tested on: Mycobacterium tuberculosis; experiment: Antituberculosis activity in guinea pig model of experimental tuberculosis; details: in vivo
[2] = tested on: Clostridium perfringens (ATCC 13124)
[3] = tested on: Klebsiella pneumoniae 8637 strain; experiment: Neutropenic lung infection model; type: in vivo, ICR mice; details: for Decrease in the number of CFU vs control (placebo): Day 5
[4] = tested on: Pseudomonas aeruginosa (RP73); experiment: Pseudomonas aeruginosa lung infection in rats; type: in vivo, Sprague-Dawley rats
[5] = tested on: Streptococcus pyogenes (ATCC BAA-2469); experiment: Soft tissue (thigh) infection model in neutropenic mice; type: in vivo; details: 24 hours post infection
[6] = tested on: Klebsiella pneumoniae BAA-1705; experiment: Bacterial pneumonia in neutropenic mice, AMC-resistant strain (Study No. 1); type: in vivo
[7] = tested on: influenza A/California/07/09(H1N1)pdm09; type: in vivo, mice
[8] = tested on: Chlamydophila pneumonia CM1 strain; experiment: Lung infection model with Chlamydophila pneumonia; type: in vivo, C57BL/6J mice
[9] = tested on: carrageenan induced inflammation in rats; experiment: Carrageenan induced paw oedema; type: in vivo
Experimental: Inflammatory response was induced in animals by subplantar injection (into the plantar aponeurosis of the left hind paw) of 0.1 ml 1% carrageenan solution.
The severity of inflammatory response was assessed by estimating oedema weight gain in mg calculated as a difference between the paw weights with and without oedema.

[10] = 48 hours after infection (medicament: 48 hours and onwards)

Which results are given for `NNC(=O)c1ccncc1` [placebo + isoniazid, Isoniazid]?
Difference between initial and final body weight of animals [1]: 180.6 ± 28.4 g; Life expectancy, units [1]: 2.7 ± 0.09 units

With `CO[C@@]1(NC(=O)Cc2cccs2)C(=O)N2C(C(=O)O)=C(COC(N)=O)CS[C@@H]21` [cefoxitin] as the molecule, how does the Animals alive ([2]; 24 hours after infection) read?
Its Animals alive is 55%.

And the Animals alive [2, 10]?
The Animals alive was 15%.

What about the Animals alive ([2]; 72 hours after infection) of the same molecule?
The Animals alive was 15%.

Which results are given for `C[C@@H](O)[C@H]1C(=O)N2C(C(=O)O)=C(SCCN=CN)C[C@H]12` [imipenem]?
Animals survived ([3]; Day 1 after infection): 85%; Animals survived ([3]; Day 2): 70%; Animals survived ([3]; Day 3 (imipenem: Day 3 and onwards)): 50%; Decrease in the number of CFU vs control (placebo) ([3]; blood): 67%; Decrease in the number of CFU vs control (placebo) ([3]; kidneys): 61%; Decrease in the number of CFU vs control (placebo) ([3]; liver): 40%; Decrease in the number of CFU vs control (placebo) ([3]; lungs): 48%; Decrease in the number of CFU vs control (placebo) ([3]; spleen): 45%

For `NC[C@H]1O[C@H](O[C@H]2[C@H](O)[C@@H](O[C@H]3O[C@H](CO)[C@@H](O)[C@H](N)[C@H]3O)[C@H](N)C[C@@H]2N)[C@H](N)C[C@@H]1O` [tobramycin], which “Decrease of bronchoalveolar lavage CFU count compared to placebo” value ([4]; Day 5) is on record?
The value was 88%.

And the “Decrease of bronchoalveolar lavage CFU count compared to the untreated animals” value ([4]; Day 5)?
The value was 88%.

And the “Reduction of lung CFU count compared to placebo” value ([4]; Day 5)?
The value was 19%.

What about the “Reduction of lung CFU count compared to the untreated animals” value ([4]; Day 5) of the same molecule?
Its value is 29%.

And the “Overall decrease in body weight by the end of the study” value ([4]; vs baseline)?
The value was 4%.

How did the Animals alive ([2]; 24 hours after infection) turn out when `CN(C)[C@@H]1C(O)=C(C(N)=O)C(=O)[C@@]2(O)C(O)=C3C(=O)c4c(O)cccc4[C@@](C)(O)[C@H]3C[C@@H]12` [tetracycline] was run?
Its Animals alive is 85%.

And the Animals alive [2, 10]?
Its Animals alive is 80%.

And the Animals alive ([2]; 72 hours after infection)?
Its Animals alive is 80%.

How did the “Mean bacterial burden in the femoral tissue” value [5] turn out when `CC[C@H]1OC(=O)[C@H](C)C(=O)[C@H](C)[C@@H](O[C@@H]2O[C@H](C)C[C@H](N(C)C)[C@H]2O)[C@](C)(OC)C[C@@H](C)C(=O)[C@H](C)[C@H]2N(CCCCn3cnc(-c4cccnc4)c3)C(=O)O[C@]12C` [placebo + T, telithromycin] was run?
Its value is 8.4 CFU/g, log10.

`CC(=O)NC[C@H]1CN(c2ccc(N3CCOCC3)c(F)c2)C(=O)O1` [placebo + L, linezolid] was tested. Which “Mean bacterial burden in the femoral tissue” value [5] did it give?
The value was 5.5 CFU/g, log10.

Gentamicin was tested. Which Animals survived ([6]; AMC-resistant strain, 10^6 CFU/mouse) did it give?
Its Animals survived is 70%.

What about the Body weight evolution ([6]; follow-up period) of the same molecule?
The Body weight evolution was “body weight evolution was observed from 54 h”.

What does the source list for `CCOC(=O)C1=C[C@@H](OC(CC)CC)[C@H](NC(C)=O)[C@@H](N)C1` [Tamiflu, Oseltamivir]?
Body weights of experimental animals expressed as M ± SD ([7]; Day 0): 16.7 ± 1.2; Body weights of experimental animals expressed as M ± SD ([7]; Day 5): 15.5 ± 1.4; Body weights of experimental animals expressed as M ± SD ([7]; Day 9): 13.6 ± 1.7; Body weights of experimental animals expressed as M ± SD ([7]; Day 12): 14.9 ± 2.2; Body weights of experimental animals expressed as M ± SD ([7]; Day −5): 17.8 ± 1.2; Body weights of experimental animals expressed as M ± SD ([7]; Day −15): 16.1 ± 1.0; Protection index, % ([7]; PI=((Mc−Me)/Mc)×100%): 57.1%; MLE ([7]; mean life expectancy over 14 days): 8.6 days; Mortality rate, % ([7]; mouse, in vivo): 30%; Viral titer in lung tissue, Mean ([7]; mouse, in vivo): 4.8 Ig TCID50/0.2 ml; Viral titer in lung tissue, individual animals ([7]; mouse, in vivo, listed as 2): 4.5 Ig TCID50/0.2 ml (5×) and 5.0 Ig TCID50/0.2 ml (2×) and 4.0 Ig TCID50/0.2 ml and 5.5 Ig TCID50/0.2 ml and 6.0 Ig TCID50/0.2 ml; MLE increase ([7]; vs negative control): 0.2 days

What does the source list for `CC[C@H]1OC(=O)[C@H](C)[C@@H](O[C@H]2C[C@@](C)(OC)[C@@H](O)[C@H](C)O2)[C@H](C)[C@@H](O[C@@H]2O[C@H](C)C[C@H](N(C)C)[C@H]2O)[C@](C)(O)C[C@@H](C)CN(C)[C@H](C)[C@@H](O)[C@]1(C)O` [azithromycin]?
Death rate ([8]; Day 3 after infection): 19%; IL-1β concentration in lung tissue, % of the control levels (Group 1) ([8]; Day 3 after infection): 17%; IL-6 concentration in lung tissue, % of the control levels (Group 1) ([8]; Day 3 after infection): 15%; Number of infected HEp2 cells (bacterial load of lung homogenate), % of placebo ([8]; Day 3 after infection): 15%; IL-1β concentration in lung tissue, % of the control levels (Group 1) ([8]; Day 6 after infection): 7%; IL-6 concentration in lung tissue, % of the control levels (Group 1) ([8]; Day 6 after infection): 8%; Number of infected HEp2 cells (bacterial load of lung homogenate), % of placebo ([8]; Day 6 after infection): 17%; IL-1β concentration in lung tissue, % of the control levels (Group 1) ([8]; Day 12 after infection): 6%; IL-6 concentration in lung tissue, % of the control levels (Group 1) ([8]; Day 12 after infection): 5%; Number of infected HEp2 cells (bacterial load of lung homogenate), % of placebo ([8]; Day 12 after infection): 5%; Survival rate ([8]; whole study, deaths first recorded on Day 3): 81%

With `COc1ccc2c(c1)c(CC(=O)O)c(C)n2C(=O)c1ccc(Cl)cc1` [indomethacin, Indomethacin] as the molecule, how does the “Decrease of oedema weight as compared to the control” value [9] read?
The value was 57.9%.
